Data: patent publication US12551482B2, “Aurora kinase inhibitors” (The Regents of the University of California, priority 2013, dated 2026)
Entries after “also recorded” stand apart in the source; their conditions may differ. Where two headings read alike, the source gives them in different places.

What was measured:
[1] = test system: MEL-JUSO; assay: Cancer cell line profiling, Genomics of Drug Sensitivity Project; conditions: Homo sapiens, read-out: CD532 EC50 (uM)
[2] = test system: A2058; assay: as above
[3] = test system: MZ7-mel; assay: as above
[4] = test system: FU97; assay: as above; conditions: Fu97, read-out: CD532 EC50 (uM)
[5] = test system: HSC-3; assay: as above; conditions: Homo sapiens, HSC-3, read-out: CD532 EC50 (uM)
[6] = test system: DOK; assay: as above; conditions: read-out: CD532 EC50 (uM)
[7] = target: T1, MYCN-Aurora A complex (Homo sapiens, UniProt O14965); assay: Pulldown of MYCN and immunoblot for Aurora A; assay type: cell-based; conditions: MYCN-amplified IMR32 cells, 4 hrs MG-132, 2 hrs drug, increasing concentrations
T1 construct: Representative immunoprecipitation of MYCN and immunoblots from MYCN-amplified IMR32 cells; endogenous in cells

[8] = test system: AGS; assay: Cancer cell line profiling, Genomics of Drug Sensitivity Project; conditions: Homo sapiens, read-out: CD532 EC50 (uM)
[9] = test system: DSH1; assay: as above; conditions: read-out: CD532 EC50 (uM)
[10] = test system: MKN45; assay: as above
[11] = test system: IMR-5; assay: as above; conditions: Homo sapiens, IMR-5, read-out: CD532 EC50 (uM)
[12] = test system: WM793B; assay: as above; conditions: read-out: CD532 EC50 (uM)
[13] = test system: SCC-4; assay: as above; conditions: Homo sapiens, SCC-4, read-out: CD532 EC50 (uM)
[14] = test system: SK-MEL-30; assay: as above; conditions: Homo sapiens, SK-MEL-30, read-out: CD532 EC50 (uM)
[15] = test system: SK-MEL-1; assay: as above; conditions: Homo sapiens, SK-MEL-1, read-out: CD532 EC50 (uM)
[16] = test system: NBsusSR; assay: as above; conditions: read-out: CD532 EC50 (uM)
[17] = test system: COLO-800; assay: as above; conditions: Homo sapiens, COLO-800, read-out: CD532 EC50 (uM)
[18] = test system: MYCN; assay: MYCN-amplified neuroblastoma xenografts, MYCN protein in tumors; assay type: in vivo; conditions: mice treated daily for 2 days with 60 mg/kg
Experimental: Mice were injected intraperitoneally as described. For determining tumor volume, for example in medulloblastoma model mice, mice were euthanized once maximum tumor length exceeded 2.0 cm, per IACUC protocol (IACUC, Institutional Animal Care and Use Committee).

[19] = test system: JHH-4; assay: Cancer cell line profiling, Genomics of Drug Sensitivity Project; conditions: JHH-4, read-out: CD532 EC50 (uM)
[20] = test system: KON; assay: as above; conditions: read-out: CD532 EC50 (uM)
[21] = test system: MMAC-SF; assay: as above; conditions: read-out: CD532 EC50 (uM)
[22] = test system: HPAC; assay: as above; conditions: Homo sapiens, read-out: CD532 EC50 (uM)
[23] = test system: RPMI-7951; assay: as above
[24] = test system: 23132/87; assay: as above; conditions: read-out: CD532 EC50 (uM)
[25] = test system: LB2518-MEL; assay: as above
[26] = test system: MEWO; assay: as above; conditions: Homo sapiens, read-out: CD532 EC50 (uM)
[27] = test system: WM35; assay: as above; conditions: WM35, read-out: CD532 EC50 (uM)
[28] = test system: BICR 10; assay: as above; conditions: read-out: CD532 EC50 (uM)
[29] = test system: SAT; assay: as above; conditions: read-out: CD532 EC50 (uM)
[30] = test system: A253; assay: as above; conditions: Homo sapiens, A253, read-out: CD532 EC50 (uM)
[31] = test system: CL-11; assay: as above; conditions: CL-11, read-out: CD532 EC50 (uM)

T1 sequence (O14965 whole entry, one chain of several): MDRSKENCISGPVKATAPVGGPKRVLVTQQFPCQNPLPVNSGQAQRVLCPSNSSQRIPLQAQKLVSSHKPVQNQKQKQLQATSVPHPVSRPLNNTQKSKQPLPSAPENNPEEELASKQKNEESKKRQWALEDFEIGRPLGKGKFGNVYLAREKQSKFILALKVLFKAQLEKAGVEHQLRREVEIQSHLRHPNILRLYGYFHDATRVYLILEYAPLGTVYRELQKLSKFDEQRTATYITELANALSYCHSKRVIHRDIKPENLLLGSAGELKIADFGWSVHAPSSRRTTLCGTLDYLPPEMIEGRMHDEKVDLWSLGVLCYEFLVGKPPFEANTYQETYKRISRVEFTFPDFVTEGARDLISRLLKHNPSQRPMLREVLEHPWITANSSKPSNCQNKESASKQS

O=C(Nc1ccc(Nc2nccc(Nc3cc(C4CCCC4)[nH]n3)n2)cc1)Nc1cccc(C(F)(F)F)c1 [CD532, 1-(4-((4-((5-cyclopentyl-1H-pyrazol-3-yl)amino)pyrimidin-2-yl)amino)phenyl)-3-(3-(trifluoromethyl)phenyl)urea]
EC50 [1]: 0.783 µM | EC50 ([2]; Homo sapiens, A2058, read-out: CD532 EC50 (uM), A2058 cell line, Skin): 0.975 µM | EC50 ([2]; read-out: CD532 EC50, A2058 cell line, Skin): 1.09 µM | EC50 ([3]; read-out: CD532 EC50 (uM), MZ7-mel cell line, Skin): 0.73 µM | EC50 ([3]; read-out: CD532 EC50, MZ7-mel cell line, Skin): 0.556 µM | EC50 [4]: 0.545 µM | EC50 [5]: 2.33 µM | EC50 [6]: 0.512 µM | MYCN-Aurora A interaction [7]: complete and dose-dependent loss of Aurora A/MYCN interaction; also recorded: dose-dependent and complete dissociation of the MYCN-Aurora A complex | EC50 [8]: 0.346 µM | EC50 [9]: 0.779 µM | EC50 ([10]; Homo sapiens, MKN-45, read-out: CD532 EC50 (uM), MKN45 cell line, Stomach): 0.456 µM | EC50 ([10]; read-out: CD532 EC50, MKN45 cell line, Stomach): 0.26 µM | EC50 [11]: 0.0071 µM | EC50 [12]: 0.705 µM | EC50 [13]: 0.884 µM | EC50 [14]: 0.323 µM | EC50 [15]: 0.649 µM | EC50 [16]: 0.382 µM | EC50 [17]: 0.302 µM | MYCN protein in tumors [18]: decreased levels of MYCN protein | EC50 [19]: 1.35 µM | EC50 [20]: 4.15 µM | EC50 [21]: 0.566 µM | EC50 [22]: 2.5 µM | EC50 ([23]; Homo sapiens, RPMI-7951, read-out: CD532 EC50 (uM), RPMI-7951 cell line, Skin): 1.06 µM | EC50 ([23]; read-out: CD532 EC50, RPMI-7951 cell line, Skin): 0.952 µM | EC50 [24]: 0.471 µM | EC50 ([25]; read-out: CD532 EC50 (uM), LB2518-MEL cell line, Skin): 0.847 µM | EC50 ([25]; read-out: CD532 EC50, LB2518-MEL cell line, Skin): 0.709 µM | EC50 [26]: 1.46 µM | EC50 [27]: 0.367 µM | EC50 [28]: 4.27 µM | EC50 [29]: 1.19 µM | EC50 [30]: 24.5 µM | EC50 [31]: 4.93 µM
